Here are results for 17 compounds from patent US8865623B2, “Herbicidally active cyclic diones and derivatives thereof, processes for their preparation, compositions, and method of controlling weeds” (Syngenta Limited, priority 2009, dated 2014).

Holding throughout (assay type): in vivo
The test system of assay [1] is Echinochloa crus-galli (ECHCG). As to the kind of experiment: Pre-emergence herbicidal activity, glasshouse pot test. The conditions noted are these: Echinochloa crus-galli, 312 h; Rate 250 g/ha; pre-emergence spray; evaluated after 13 days; read-out: Pre-emergence activity ECHCG (100=total damage to plant; 0=no damage to plant). In a few lines: (§1)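 Glasshouse pots, standard soil; spray at day 1 (pre) or day 8 (post) after sowing; a.i. in acetone/water 50:50 + 0.5% Tween 20, diluted aqueous. 24/16° C, 14 h light, 65% RH. Visual damage at 13 days: 0 = none, 100 = total.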

Assay [2] has as its system Alopecurus myosuroides (ALOMY). The description is as above. The conditions noted are these: Alopecurus myosuroides, 312 h; Rate 250 g/ha; pre-emergence spray; evaluated after 13 days; read-out: Pre-emergence activity ALOMY (100=total damage to plant; 0=no damage to plant). The procedure, abridged:
as §1

Assay [3] deals with Avena fatua (AVEFA). Described as above. The conditions noted are these: Avena fatua, 312 h; Rate 250 g/ha; pre-emergence spray; evaluated after 13 days; read-out: Pre-emergence activity AVEFA (100=total damage to plant; 0=no damage to plant). The procedure, abridged: as §1
The test system of assay [4] is Lolium perenne (LOLPE). Described as above. The conditions noted are these: Lolium perenne, 312 h; Rate 250 g/ha; pre-emergence spray; evaluated after 13 days; read-out: Pre-emergence activity LOLPE (100=total damage to plant; 0=no damage to plant). The procedure, abridged:
as §1

Assay [5] concerns Echinochloa crus-galli (ECHCG). In words: Post-emergence herbicidal activity, glasshouse pot test. The conditions noted are these: Echinochloa crus-galli, 312 h, rate 250 g/ha, evaluated after 13 days, glasshouse, read-out: Post-emergence activity ECHCG (100=total damage to plant; 0=no damage to plant). In a few lines: as §1
The test system of assay [6] is Alopecurus myosuroides (ALOMY). The description is as above. The conditions noted are these: Alopecurus myosuroides, 312 h, rate 250 g/ha, evaluated after 13 days, glasshouse, read-out: Post-emergence activity ALOMY (100=total damage to plant; 0=no damage to plant). In a few lines:
as §1

Assay [7] has as its system Avena fatua (AVEFA). The assay is described as above. The conditions noted are these: Avena fatua, 312 h, rate 250 g/ha, evaluated after 13 days, glasshouse, read-out: Post-emergence activity AVEFA (100=total damage to plant; 0=no damage to plant). In a few lines: as §1
The subject of assay [8] is Lolium perenne (LOLPE). The description is as above. The conditions noted are these: Lolium perenne, 312 h, rate 250 g/ha, evaluated after 13 days, glasshouse, read-out: Post-emergence activity LOLPE (100=total damage to plant; 0=no damage to plant). In a few lines:
as §1

Regarding `CCc1ccc(Oc2ccc(C(F)(F)F)cn2)cc1C1=C(O)CC(C)(C)CC1=O` [Example A-83], the pest or weed control at 250 g/ha in assay [1] was 100%; in assay [2], 70%; in the assay on Avena fatua (AVEFA) [3] it was 90%; in the assay on Lolium perenne (LOLPE) [4], 90%; in assay [5], 100%; in assay [6], 90%. Also, the figures for the pest or weed control at 250 g/ha in the assay with Avena fatua (AVEFA) [7] and in the assay with Lolium perenne (LOLPE) [8] were 100% and 60%, respectively.
`CCc1ccc(Oc2ncc(Cl)cc2Cl)cc1C1=C(O)CC(C)(C)CC1=O` [Example A-84]: the pest or weed control at 250 g/ha in assay [1] came to 100%; in assay [2], 70%; in the assay with Avena fatua (AVEFA) [3], 60%; in the assay with Lolium perenne (LOLPE) [4] it was 100%; in assay [5], 100%; in assay [6] it was 100%. Besides, the results for the pest or weed control at 250 g/ha with Avena fatua (AVEFA) [7] and with Lolium perenne (LOLPE) [8] were 50% and 90%, respectively.
For `CCc1ccc(Oc2ncc(Cl)cc2F)cc1C1=C(O)CC(C)(C)CC1=O` [Example A-85], the pest or weed control at 250 g/ha (in assay [1]; in assay [2]; in the assay on Avena fatua (AVEFA) [3]; in the assay on Lolium perenne (LOLPE) [4]; in assay [5]; in assay [6]) was 100% in each case. The pest or weed control at 250 g/ha in the assay on Avena fatua (AVEFA) [7] and in the assay on Lolium perenne (LOLPE) [8] was 90% each time.
For `CCc1ccc(Oc2ncc(C(F)(F)F)cc2Cl)cc1C1=C(O)CC(C)(C)CC1=O` [Example A-86], the pest or weed control at 250 g/ha in assay [1] turned out to be 100%; in assay [2] it was 90%; with Avena fatua (AVEFA) [3], 100%; in the assay with Lolium perenne (LOLPE) [4] it was 100%; in assay [5], 100%; in assay [6] it was 90%. Also, the pest or weed control at 250 g/ha in the assay with Avena fatua (AVEFA) [7] is 100%; in the assay on Lolium perenne (LOLPE) [8], 70%.
In the case of `CCc1ccc(Oc2ccc(C#N)cc2F)cc1C1=C(O)CC(C)(C)CC1=O` [Example A-87], the pest or weed control at 250 g/ha in assay [1] came out at 60%; in assay [2] it was 30%; with Avena fatua (AVEFA) [3], 20%; in the assay on Lolium perenne (LOLPE) [4], 40%; in assay [5] it was 80%; in assay [6] it was 70%. Also, the pest or weed control at 250 g/ha in the assay on Avena fatua (AVEFA) [7] and in the assay on Lolium perenne (LOLPE) [8] was 40% in each case.
As to `CCc1ccc(Oc2ccc(C(F)(F)F)cc2)cc1C1=C(O)C(C)(C)OC(C)(C)C1=O` [Example A-97], the pest or weed control at 250 g/ha in assay [1] is 100%; in assay [2], 80%; in the assay on Avena fatua (AVEFA) [3], 90%; in the assay with Lolium perenne (LOLPE) [4], 100%; in assay [5], 100%; in assay [6], 100%. Moreover, the pest or weed control at 250 g/ha in the assay on Avena fatua (AVEFA) [7] and in the assay with Lolium perenne (LOLPE) [8] was 90% in each case.
On to `CCc1ccc(Oc2cc(Cl)ncn2)cc1C1=C(O)C(C)(C)OC(C)(C)C1=O` [Example A-98], for which the pest or weed control at 250 g/ha in assay [1] worked out at 80%; in assay [2], 40%; with Avena fatua (AVEFA) [3], 20%; in the assay with Lolium perenne (LOLPE) [4], 60%; in assay [5], 100%; in assay [6], 70%. Moreover, the pest or weed control at 250 g/ha in the assay with Avena fatua (AVEFA) [7] is 60%; in the assay with Lolium perenne (LOLPE) [8], 30%.
On to `CCc1ccc(Oc2ccc(C(F)(F)F)cc2Cl)cc1C1=C(O)C(C)(C)OC(C)(C)C1=O` [Example A-99], for which the pest or weed control at 250 g/ha was 100% in assay [1]; 60% in assay [2]; 30% in the assay on Avena fatua (AVEFA) [3]; 100% with Lolium perenne (LOLPE) [4]; 100% in assay [5]; 80% in assay [6]. The pest or weed control at 250 g/ha in the assay on Avena fatua (AVEFA) [7] was 90%; in the assay on Lolium perenne (LOLPE) [8] it was 80%.
For `CCc1ccc(Oc2ccc(C(F)(F)F)cc2C#N)cc1C1=C(O)C(C)(C)OC(C)(C)C1=O` [Example A-100], the pest or weed control at 250 g/ha was 100% in assay [1]; 40% in assay [2]; 40% in the assay with Avena fatua (AVEFA) [3]; 80% in the assay with Lolium perenne (LOLPE) [4]; 90% in assay [5]; 80% in assay [6]. Moreover, the figures for the pest or weed control at 250 g/ha in the assay with Avena fatua (AVEFA) [7] and with Lolium perenne (LOLPE) [8] were 80% and 40%, respectively.
In the case of `CCc1ccc(Oc2ccc(C(F)(F)F)c(Cl)c2)cc1C1=C(O)C(C)(C)OC(C)(C)C1=O` [Example A-101], the pest or weed control at 250 g/ha in assay [1] was determined as 90%; in assay [2] it was 60%; in the assay with Avena fatua (AVEFA) [3] it was 80%; in the assay with Lolium perenne (LOLPE) [4], 90%; in assay [5], 100%; in assay [6], 100%. The pest or weed control at 250 g/ha came out at 90% with Avena fatua (AVEFA) [7] and 100% in the assay with Lolium perenne (LOLPE) [8].
For the compound `CCc1ccc(Oc2cncc(Cl)n2)cc1C1=C(O)C(C)(C)OC(C)(C)C1=O` [Example A-102], the pest or weed control at 250 g/ha was found to be 10% in assay [1]; 0% in assay [2]; 0% with Avena fatua (AVEFA) [3]; 20% with Lolium perenne (LOLPE) [4]; 40% in assay [5]; 10% in assay [6]. Moreover, the results for the pest or weed control at 250 g/ha in the assay with Avena fatua (AVEFA) [7] and in the assay with Lolium perenne (LOLPE) [8] were 0% and 20%, respectively.
In the case of `CCc1ccc(Oc2nccnc2Cl)cc1C1=C(O)C(C)(C)OC(C)(C)C1=O` [Example A-103], the pest or weed control at 250 g/ha in assay [1] worked out at 30%; in assay [2], 10%; with Avena fatua (AVEFA) [3], 0%; in the assay on Lolium perenne (LOLPE) [4], 40%; in assay [5], 40%; in assay [6], 10%. Besides, the pest or weed control at 250 g/ha in the assay on Avena fatua (AVEFA) [7] was found to be 0%; in the assay on Lolium perenne (LOLPE) [8], 20%.
In the case of `CCc1ccc(Oc2cnc3ccc(Br)cc3n2)cc1C1=C(O)C(C)(C)OC(C)(C)C1=O` [Example A-104], the pest or weed control at 250 g/ha was found to be 100% in assay [1]; 90% in assay [2]; 30% with Avena fatua (AVEFA) [3]; 100% with Lolium perenne (LOLPE) [4]; 100% in assay [5]; 90% in assay [6]. Further, the figures for the pest or weed control at 250 g/ha with Avena fatua (AVEFA) [7] and in the assay with Lolium perenne (LOLPE) [8] were 80% and 90%, respectively.
Take `CCc1ccc(Oc2nc3ccccc3s2)cc1C1=C(O)C(C)(C)OC(C)(C)C1=O` [Example A-105]: the pest or weed control at 250 g/ha turned out to be 100% in assay [1]; 70% in assay [2]; 10% in the assay with Avena fatua (AVEFA) [3]; 100% in the assay on Lolium perenne (LOLPE) [4]; 90% in assay [5]; 90% in assay [6]. The pest or weed control at 250 g/ha in the assay on Avena fatua (AVEFA) [7] worked out at 10%; in the assay with Lolium perenne (LOLPE) [8] it was 90%.
`CCc1ccc(Oc2nc3ccc(Cl)cc3s2)cc1C1=C(O)C(C)(C)OC(C)(C)C1=O` [Example A-106]: the pest or weed control at 250 g/ha is 90% in assay [1]; 60% in assay [2]; 20% with Avena fatua (AVEFA) [3]; 100% in the assay on Lolium perenne (LOLPE) [4]; 90% in assay [5]; 90% in assay [6]. The values for the pest or weed control at 250 g/ha with Avena fatua (AVEFA) [7] and with Lolium perenne (LOLPE) [8] were 50% and 80%, respectively.
On to `CCc1ccc(Oc2ncc(Cl)cn2)cc1C1=C(O)C(C)(C)OC(C)(C)C1=O` [Example A-107], for which the pest or weed control at 250 g/ha in assay [1] was 100%; in assay [2] it was 90%; in the assay on Avena fatua (AVEFA) [3], 80%; with Lolium perenne (LOLPE) [4], 100%; in assay [5], 100%; in assay [6] it was 80%. The results for the pest or weed control at 250 g/ha with Avena fatua (AVEFA) [7] and in the assay with Lolium perenne (LOLPE) [8] were 80% and 40%, respectively.
As for `CCc1ccc(Oc2nccc(C(F)(F)F)n2)cc1C1=C(O)C(C)(C)OC(C)(C)C1=O` [Example A-108], the pest or weed control at 250 g/ha in assay [1] worked out at 80%; in assay [2] it was 40%; in the assay with Avena fatua (AVEFA) [3] it was 40%; in the assay with Lolium perenne (LOLPE) [4], 70%; in assay [5], 100%; in assay [6], 60%. The pest or weed control at 250 g/ha was 70% with Avena fatua (AVEFA) [7] and 50% in the assay with Lolium perenne (LOLPE) [8].
